# Laboratory results published in patent publication US20250296953A1, “3,4-THIAZOLO-STEROIDS AND METHODS OF MAKING AND USING THE SAME” (Arkansas State University - Jonesboro, priority 2018, published 2025).
# How the values were obtained:
# [1] = system: 60 different human tumor cell lines; assay: NCI Development Therapeutics Program 60 cell line screen, one dose; format: cell-based
# [2] = system: SK-MEL-25; assay: Melanoma cytotoxicity assay (resazurin); format: cell-based; conditions: SK-MEL-25 melanoma cells, 24 hours with compound, resazurin; concentration not given
# How it was run: (§1)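 Following 24 h of compound treatment (triplicates, 37° C, 5% CO2) of cells seeded one day earlier at about 4000 per well, viability was gauged with resazurin. IC50 values derive from sigmoidal concentration–viability curves.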
# [3] = system: SK-MEL-28; assay: Melanoma cytotoxicity assay (resazurin); format: cell-based; conditions: SK-MEL-28 melanoma cells, 24 hours with compound, resazurin; concentration not given
# How it was run: as §1
# [4] = system: HCT-15 (Colon Cancer); assay: NCI 60 one dose screen; format: cell-based, human
# [5] = system: RPMI-8226; assay: NCI 60 five dose screen
# [6] = system: SR; assay: NCI 60 five dose screen
smiles,measurement,setting,value
"C[C@]12CCc3sc(Nc4cccc(O)c4)nc3C1=CC[C@@H]1[C@@H]2CC[C@]2(C)C(=O)CC[C@@H]12 [IIa.17, (1S,2R,13R,14S,18S)-7-(3-hydroxyanilino)-2,18-dimethyl-6-thia-8-azapentacyclo[11.7.0.02,10.05,9.014,18]icosa-5(9),7,10-trien-17-one]",Growth Percent,"[1]; Breast Cancer, BT-549",17.42%
same,Growth Percent,"[1]; Breast Cancer, HS 578T",7.41%
same,Growth Percent,"[1]; Breast Cancer, MCF7",−25.89%
same,Growth Percent,"[1]; Breast Cancer, MDA-MB-231/ATCC",39.51%
same,Growth Percent,"[1]; Breast Cancer, MDA-MB-468",32.20%
same,Growth Percent,"[1]; Breast Cancer, T-47D",−8.55%
same,Growth Percent,"[1]; CNS Cancer, SF-268",43.09%
same,Growth Percent,"[1]; CNS Cancer, SNB-19",57.90%
same,Growth Percent,"[1]; CNS Cancer, SNB-75",37.28%
same,Growth Percent,"[1]; CNS Cancer, U251",18.85%
same,Growth Percent,"[1]; Colon Cancer, COLO 205",34.38%
same,Growth Percent,"[1]; Colon Cancer, HCC-2998",81.46%
same,Growth Percent,"[1]; Colon Cancer, HCT-116",−23.66%
same,Growth Percent,"[1]; Colon Cancer, HT29",−29.01%
same,Growth Percent,"[1]; Colon Cancer, KM12",34.70%
same,Growth Percent,"[1]; Colon Cancer, SW-620",−4.13%
same,Growth Percent,"[1]; Leukemia, CCRF-CEM",12.99%
same,Growth Percent,"[1]; Leukemia, HL-60(TB)",45.99%
same,Growth Percent,"[1]; Leukemia, K-562",4.81%
same,Growth Percent,"[1]; Leukemia, MOLT-4",5.52%
same,Growth Percent,"[1]; Leukemia, RPMI-8226",−13.60%
same,Growth Percent,"[1]; Leukemia, SR",3.61%
same,Growth Percent,"[1]; Melanoma, LOX IMVI",−52.69%
same,Growth Percent,"[1]; Melanoma, M14",54.77%
same,Growth Percent,"[1]; Melanoma, MALME-3M",35.26%
same,Growth Percent,"[1]; Melanoma, MDA-MB-435",42.59%
same,Growth Percent,"[1]; Melanoma, SK-MEL-2",29.07%
same,Growth Percent,"[1]; Melanoma, SK-MEL-5",64.76%
same,Growth Percent,"[1]; Melanoma, SK-MEL-28",41.25%
same,Growth Percent,"[1]; Melanoma, UACC-62",28.83%
same,Growth Percent,"[1]; Melanoma, UACC-257",79.56%
same,Growth Percent,"[1]; Non-small Cell Lung Cancer, A549/ATCC",55.43%
same,Growth Percent,"[1]; Non-small Cell Lung Cancer, EKVX",71.36%
same,Growth Percent,"[1]; Non-small Cell Lung Cancer, HOP-62",27.50%
same,Growth Percent,"[1]; Non-small Cell Lung Cancer, HOP-92",64.31%
same,Growth Percent,"[1]; Non-small Cell Lung Cancer, NCI-H23",63.65%
same,Growth Percent,"[1]; Non-small Cell Lung Cancer, NCI-H226",94.46%
same,Growth Percent,"[1]; Non-small Cell Lung Cancer, NCI-H322M",72.84%
same,Growth Percent,"[1]; Non-small Cell Lung Cancer, NCI-H460",43.90%
same,Growth Percent,"[1]; Ovarian Cancer, IGROV1",−12.12%
same,Growth Percent,"[1]; Ovarian Cancer, NCI/ADR-RES",78.93%
same,Growth Percent,"[1]; Ovarian Cancer, OVCAR-3",−3.79%
same,Growth Percent,"[1]; Ovarian Cancer, OVCAR-4",52.06%
same,Growth Percent,"[1]; Ovarian Cancer, OVCAR-5",109.51%
same,Growth Percent,"[1]; Ovarian Cancer, OVCAR-8",17.89%
same,Growth Percent,"[1]; Ovarian Cancer, SK-OV-3",37.28%
same,Growth Percent,"[1]; Prostate Cancer, DU-145",12.72%
same,Growth Percent,"[1]; Prostate Cancer, PC-3",28.08%
same,Growth Percent,"[1]; Renal Cancer, 786-0",−0.52%
same,Growth Percent,"[1]; Renal Cancer, ACHN",5.12%
same,Growth Percent,"[1]; Renal Cancer, CAKI-1",37.11%
same,Growth Percent,"[1]; Renal Cancer, RXF 393",−6.67%
same,Growth Percent,"[1]; Renal Cancer, SN12C",46.55%
same,Growth Percent,"[1]; Renal Cancer, TK-10",10.18%
same,Growth Percent,"[1]; Renal Cancer, UO-31",22.19%
same,SK-MEL-25 (% inhibition),[2],79%
same,SK-MEL-28 (% inhibition),[3],87%
same,Growth Percent,[4],−47.90%
same,GI50,"[5]; Homo sapiens, RPMI-8226",2730 nM
same,CC50,"[5]; Homo sapiens, RPMI-8226, read-out: LC50",> 100000 nM
same,TGI,"[5]; RPMI-8226 (Leukemia), five dose",7.44E−6
same,GI50,"[6]; Homo sapiens, SR",2580 nM
same,CC50,"[6]; Homo sapiens, SR, read-out: LC50",> 100000 nM
same,TGI,"[6]; SR (Leukemia), five dose",>1.00E−4
